Reference: ChEMBL document CHEMBL3045600, “Synthesis and Fungicidal Activities of Phenoxyphenyl Alkoxyiminoacetamide Derivatives” (J Pestic Sci, 1998)

Experiments:
Type in all cases: functional
Thanatephorus cucumeris [1] = assay: Fungicidal activity against Thanatephorus cucumeris assessed as rice sheath blight disease control at 31.3 ppm foliar application for 24 hr before inoculation at 26 +- 2 measured after 5 days by preventive manner
Thanatephorus cucumeris [2] = assay: Fungicidal activity against Thanatephorus cucumeris assessed as rice sheath blight disease control at 7.8 ppm foliar application for 24 hr before inoculation at 26 +- 2 measured after 5 days by preventive manner
Thanatephorus cucumeris [3] = assay: Fungicidal activity against Thanatephorus cucumeris assessed as rice sheath blight disease control at 2 ppm foliar application for 24 hr before inoculation at 26 +- 2 measured after 5 days by preventive manner
Podosphaera fuliginea [4] = assay: Fungicidal activity against Podosphaera fuliginea assessed as cucumber powdery mildew control under greenhouse at 7.8 ppm foliar application 24 hr after inoculation on upper surface of leaf at 23 +/- 2 degC by curative manner
Podosphaera fuliginea [5] = assay: Fungicidal activity against Podosphaera fuliginea assessed as cucumber powdery mildew control under greenhouse at 2 ppm foliar application 24 hr after inoculation on upper surface of leaf at 23 +/- 2 degC by curative manner
[6] = tested on: Pseudoperonospora cubensis; assay: Fungicidal activity against Pseudoperonospora cubensis assessed as cucumber downy mildew disease control at 125 ppm foliar application 24 hr before inoculation on upper surface of leaf by preventive manner
[7] = tested on: Pseudoperonospora cubensis; assay: Fungicidal activity against Pseudoperonospora cubensis assessed as cucumber downy mildew disease control at 31.3 ppm foliar application 24 hr before inoculation on upper surface of leaf by preventive manner
[8] = tested on: Pseudoperonospora cubensis; assay: Fungicidal activity against Pseudoperonospora cubensis assessed as cucumber downy mildew disease control at 7.8 ppm foliar application 24 hr before inoculation on upper surface of leaf by preventive manner
[9] = tested on: Pseudoperonospora cubensis; assay: Fungicidal activity against Pseudoperonospora cubensis assessed as cucumber downy mildew disease control at 2 ppm foliar application 24 hr before inoculation on upper surface of leaf by preventive manner
Podosphaera fuliginea [10] = assay: Fungicidal activity against Podosphaera fuliginea assessed as cucumber powdery mildew control under greenhouse at 125 ppm foliar application 24 hr before inoculation on upper surface of leaf at 23 +/- 2 degC by preventive manner
Podosphaera fuliginea [11] = assay: Fungicidal activity against Podosphaera fuliginea assessed as cucumber powdery mildew control under greenhouse at 31.3 ppm foliar application 24 hr before inoculation on upper surface of leaf at 23 +/- 2 degC by preventive manner
Podosphaera fuliginea [12] = assay: Fungicidal activity against Podosphaera fuliginea assessed as cucumber powdery mildew control under greenhouse at 7.8 ppm foliar application 24 hr before inoculation on upper surface of leaf at 23 +/- 2 degC by preventive manner
Podosphaera fuliginea [13] = assay: Fungicidal activity against Podosphaera fuliginea assessed as cucumber powdery mildew control under greenhouse at 2 ppm foliar application 24 hr before inoculation on upper surface of leaf at 23 +/- 2 degC by preventive manner
Thanatephorus cucumeris [14] = assay: Fungicidal activity against Thanatephorus cucumeris assessed as rice sheath blight disease control at 125 ppm foliar application for 24 hr before inoculation at 26 +- 2 measured after 5 days by preventive manner
Botrytis cinerea [15] = assay: Fungicidal activity against Botryotinia fuckeliana assessed as cucumber gray mold disease control at 31.3 ppm foliar application 24 hr after inoculation at 22 +/- 2 degC measured after 3 days by curative manner
Botrytis cinerea [16] = assay: Fungicidal activity against Botryotinia fuckeliana assessed as cucumber gray mold disease control at 7.8 ppm foliar application 24 hr after inoculation at 22 +/- 2 degC measured after 3 days by curative manner
Botrytis cinerea [17] = assay: Fungicidal activity against Botryotinia fuckeliana assessed as cucumber gray mold disease control at 2 ppm foliar application 24 hr after inoculation at 22 +/- 2 degC measured after 3 days by curative manner
Podosphaera fuliginea [18] = assay: Fungicidal activity against Podosphaera fuliginea assessed as cucumber powdery mildew control under greenhouse at 125 ppm foliar application 24 hr after inoculation on upper surface of leaf at 23 +/- 2 degC by curative manner
Podosphaera fuliginea [19] = assay: Fungicidal activity against Podosphaera fuliginea assessed as cucumber powdery mildew control under greenhouse at 31.3 ppm foliar application 24 hr after inoculation on upper surface of leaf at 23 +/- 2 degC by curative manner
[20] = tested on: Pseudoperonospora cubensis; assay: Fungicidal activity against Pseudoperonospora cubensis assessed as cucumber downy mildew disease control at 125 ppm foliar application 24 hr after inoculation on upper surface of leaf by curative manner
[21] = tested on: Pseudoperonospora cubensis; assay: Fungicidal activity against Pseudoperonospora cubensis assessed as cucumber downy mildew disease control at 31.3 ppm foliar application 24 hr after inoculation on upper surface of leaf by curative manner
[22] = tested on: Pseudoperonospora cubensis; assay: Fungicidal activity against Pseudoperonospora cubensis assessed as cucumber downy mildew disease control at 7.8 ppm foliar application 24 hr after inoculation on upper surface of leaf by curative manner
[23] = tested on: Pseudoperonospora cubensis; assay: Fungicidal activity against Pseudoperonospora cubensis assessed as cucumber downy mildew disease control at 2 ppm foliar application 24 hr after inoculation on upper surface of leaf by curative manner
Botrytis cinerea [24] = assay: Fungicidal activity against Botryotinia fuckeliana assessed as cucumber gray mold disease control at 125 ppm foliar application 24 hr after inoculation at 22 +/- 2 degC measured after 3 days by curative manner
Pyricularia oryzae [25] = assay: Fungicidal activity against Magnaporthe oryzae assessed as rice blast disease control at 10 ppm submerged application measured after 7 days
Pyricularia oryzae [26] = assay: Fungicidal activity against Magnaporthe oryzae assessed as rice blast disease control at 2.5 ppm submerged application measured after 7 days
Pyricularia oryzae [27] = assay: Fungicidal activity against Magnaporthe oryzae assessed as rice blast disease control at 0.63 ppm submerged application measured after 7 days
Pyricularia oryzae [28] = assay: Fungicidal activity against Magnaporthe oryzae assessed as rice blast disease control at 0.16 ppm submerged application measured after 7 days

Row | Compound | Activity (Thanatephorus cucumeris [1]) [%] | Activity (Thanatephorus cucumeris [2]) [%] | Activity (Thanatephorus cucumeris [3]) [%] | Activity (Podosphaera fuliginea [4]) [%] | Activity (Podosphaera fuliginea [5]) [%] | Activity [6] [%] | Activity [7] [%] | Activity [8] [%] | Activity [9] [%] | Activity (Podosphaera fuliginea [10]) [%] | Activity (Podosphaera fuliginea [11]) [%] | Activity (Podosphaera fuliginea [12]) [%] | Activity (Podosphaera fuliginea [13]) [%] | Activity (Thanatephorus cucumeris [14]) [%] | Activity (Botrytis cinerea [15]) [%] | Activity (Botrytis cinerea [16]) [%] | Activity (Botrytis cinerea [17]) [%] | Activity (Podosphaera fuliginea [18]) [%] | Activity (Podosphaera fuliginea [19]) [%] | Activity [20] [%] | other results
1 | CNC(=O)/C(=N/OC)c1ccccc1Oc1ccc([N+](=O)[O-])cc1 | <70 | <70 | <70 | 50 | 50 | <70 | <70 | <70 | <70 | 70 | 70 | 70 | 70 | <70 | 50 | 50 | 50 | 50 | 50 | <50 | Activity [21]: <50%; Activity [22]: <50%; Activity [23]: <50%; Activity (Botrytis cinerea [24]): 50%
2 | CNC(=O)/C(=N/OC)c1ccccc1Oc1cccc(OC)c1 | 70 | 70 | 70 | 50 | 50 | 70 | 70 | 70 | 70 | 70 | 70 | 70 | 70 | 70 | 50 | 50 | 50 | 50 | 50 | <50 | Activity (Pyricularia oryzae [25]): 50%; Activity (Pyricularia oryzae [26]): 50%; Activity (Pyricularia oryzae [27]): 50%; Activity (Pyricularia oryzae [28]): 50%; Activity [21]: <50%; Activity [22]: <50%; Activity [23]: <50%; Activity (Botrytis cinerea [24]): 50%
3 | CNC(=O)/C(=N/OC)c1ccccc1Oc1ccc(OC)cc1 | 70 | 70 | 70 | 50 | 50 | 70 | 70 | 70 | 70 | 70 | 70 | 70 | 70 | 70 | 50 | 50 | 50 | 50 | 50 | 50 | Activity (Pyricularia oryzae [25]): 50%; Activity (Pyricularia oryzae [26]): 50%; Activity (Pyricularia oryzae [27]): 50%; Activity (Pyricularia oryzae [28]): 50%; Activity [21]: 50%; Activity [22]: 50%; Activity [23]: 50%; Activity (Botrytis cinerea [24]): 50%
4 | CNC(=O)/C(=N/OC)c1ccccc1Oc1cccc(Oc2ccccc2)c1 | 70 | 70 | 70 | 50 | 50 | 70 | 70 | 70 | 70 | 70 | 70 | 70 | 70 | 70 | 50 | 50 | 50 | 50 | 50 | 50 | Activity (Pyricularia oryzae [25]): 50%; Activity (Pyricularia oryzae [26]): 50%; Activity (Pyricularia oryzae [27]): 50%; Activity (Pyricularia oryzae [28]): 50%; Activity [21]: 50%; Activity [22]: 50%; Activity [23]: 50%; Activity (Botrytis cinerea [24]): 50%
5 | C#CCOc1cccc(Oc2ccccc2/C(=N\OC)C(=O)NC)c1 | 70 | 70 | 70 | <50 | <50 | 70 | 70 | 70 | 70 | 70 | 70 | 70 | 70 | 70 | 50 | 50 | 50 | <50 | <50 | <50 | Activity (Pyricularia oryzae [25]): 50%; Activity (Pyricularia oryzae [26]): 50%; Activity (Pyricularia oryzae [27]): 50%; Activity (Pyricularia oryzae [28]): 50%; Activity [21]: <50%; Activity [22]: <50%; Activity [23]: <50%; Activity (Botrytis cinerea [24]): 50%
6 | CNC(=O)/C(=N/OC)c1ccccc1Oc1ccc(Cl)c(C)c1 | 70 | 70 | 70 | 50 | 50 | 70 | 70 | 70 | 70 | 70 | 70 | 70 | 70 | 70 | 50 | 50 | 50 | 50 | 50 | 50 | Activity (Pyricularia oryzae [25]): 50%; Activity (Pyricularia oryzae [26]): 50%; Activity (Pyricularia oryzae [27]): 50%; Activity (Pyricularia oryzae [28]): 50%; Activity [21]: 50%; Activity [22]: 50%; Activity [23]: 50%; Activity (Botrytis cinerea [24]): 50%
7 | CNC(=O)/C(=N/OC)c1ccccc1Oc1ccc(Cl)c(Cl)c1 | 70 | 70 | 70 | 50 | 50 | 70 | 70 | 70 | 70 | 70 | 70 | 70 | 70 | 70 | 50 | 50 | 50 | 50 | 50 | 50 | Activity (Pyricularia oryzae [25]): 50%; Activity (Pyricularia oryzae [26]): 50%; Activity (Pyricularia oryzae [27]): 50%; Activity (Pyricularia oryzae [28]): 50%; Activity [21]: 50%; Activity [22]: 50%; Activity [23]: 50%; Activity (Botrytis cinerea [24]): 50%
8 | C=CCOc1cccc(Oc2ccccc2/C(=N\OC)C(=O)NC)c1 | 70 | 70 | 70 | 50 | 50 | 70 | 70 | 70 | 70 | 70 | 70 | 70 | 70 | 70 | 50 | 50 | 50 | 50 | 50 | 50 | Activity (Pyricularia oryzae [25]): 50%; Activity (Pyricularia oryzae [26]): 50%; Activity (Pyricularia oryzae [27]): 50%; Activity (Pyricularia oryzae [28]): 50%; Activity [21]: 50%; Activity [22]: 50%; Activity [23]: 50%; Activity (Botrytis cinerea [24]): 50%
